Article PMC3634507 (International Journal of Molecular Sciences, 2013)
Several values for one entry are separate records, joined by “and”; a condition that tells them apart may be missing. Equal entries are not always repeated. Where two headings read alike, the source gives them in different places.

What was measured:
[1] = biological target: T1, AChE from Electrophorus electricus (Electrophorus electricus, UniProt O42275); conditions: Ellman's assay, compounds 7-9 ref 39, cited from earlier work
T1 construct: purchased Sigma-Aldrich

BuChE from horse serum = biological target: T2, BuChE from horse serum (Equus caballus, UniProt P81908); test: biochemical
T2 construct: BuChE from horse serum (2.5 units/1 mL); purchased Sigma-Aldrich; host or cells: horse serum
Description: The activity against acetylcholinesterases from electric eel and butyrylcholinesterase from horse serum was determined in spectrophotometric Ellman’s assay.
The activity against cholinesterases was determined in spectrophotometric Ellman’s assay.
The reaction took place in 100 mM phosphate buffer, pH 8.0, containing 0.25 units of AChE or BuChE, 0.3 mmol 5,5′-dithio-bis-(2-nitrobenzoic) acid (DTNB) and 0.45 mmol acetylthiocholine or butyrylthiocholine as substrates. The tested compounds were incubated with the enzyme for 5 min at 25 °C prior to starting the reaction by adding the substrate.

[2] = biological target: T1, AChE from Electrophorus electricus; test: Ellman's assay, AChE inhibition; assay type: biochemical
[3] = electric eel AChE, read-out: AChE IC50
[4] = AChE IC50, Ellman's assay, electric eel AChE, pH 8.0, 25 °C
[5] = Ellman's assay, horse serum BuChE, pH 8.0, 25 °C, n.a.: not active, read-out: BuChE IC50

T1 sequence (O42275 24-633): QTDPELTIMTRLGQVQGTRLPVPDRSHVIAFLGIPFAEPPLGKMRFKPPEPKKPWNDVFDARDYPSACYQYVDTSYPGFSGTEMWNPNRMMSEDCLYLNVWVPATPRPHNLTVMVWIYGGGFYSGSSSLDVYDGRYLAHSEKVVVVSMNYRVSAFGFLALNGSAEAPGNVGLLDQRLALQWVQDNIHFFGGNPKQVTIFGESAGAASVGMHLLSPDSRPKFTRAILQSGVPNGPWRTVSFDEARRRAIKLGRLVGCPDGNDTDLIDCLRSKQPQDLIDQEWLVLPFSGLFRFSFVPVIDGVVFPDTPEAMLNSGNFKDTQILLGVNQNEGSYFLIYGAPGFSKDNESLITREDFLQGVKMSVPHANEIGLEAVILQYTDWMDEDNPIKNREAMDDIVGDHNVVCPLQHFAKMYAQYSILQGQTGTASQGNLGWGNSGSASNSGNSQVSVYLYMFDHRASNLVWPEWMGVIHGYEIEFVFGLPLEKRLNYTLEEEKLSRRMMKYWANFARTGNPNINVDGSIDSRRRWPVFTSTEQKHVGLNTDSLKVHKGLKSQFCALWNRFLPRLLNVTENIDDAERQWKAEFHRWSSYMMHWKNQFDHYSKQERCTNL
T2 sequence (P81908 whole entry): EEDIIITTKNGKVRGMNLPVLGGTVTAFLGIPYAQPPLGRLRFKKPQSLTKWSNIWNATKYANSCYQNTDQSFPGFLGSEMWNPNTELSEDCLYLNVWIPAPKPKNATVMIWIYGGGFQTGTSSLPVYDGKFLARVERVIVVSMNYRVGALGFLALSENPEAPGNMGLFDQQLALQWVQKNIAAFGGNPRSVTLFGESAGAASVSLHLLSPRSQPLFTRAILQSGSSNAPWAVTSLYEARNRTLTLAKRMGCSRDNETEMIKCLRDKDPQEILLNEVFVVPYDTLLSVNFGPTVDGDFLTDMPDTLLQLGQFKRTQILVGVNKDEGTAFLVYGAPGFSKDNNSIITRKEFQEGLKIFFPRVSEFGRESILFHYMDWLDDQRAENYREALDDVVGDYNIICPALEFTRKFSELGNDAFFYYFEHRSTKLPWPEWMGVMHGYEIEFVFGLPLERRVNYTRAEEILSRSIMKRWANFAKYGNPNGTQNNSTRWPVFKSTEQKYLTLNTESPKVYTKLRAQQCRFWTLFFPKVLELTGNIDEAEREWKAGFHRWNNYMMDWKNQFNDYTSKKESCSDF

CCN(CC)CCCCCCN1C(=O)c2ccccc2C1=O [Compound 9, 2-(6-diethylaminohexyl)-isoindoline-1,3-dione]
IC50 [1, 3]: 1230 nM
IC50 ([1]; read-out: IC50 AChE): 1230 nM

O=C1c2ccccc2C(=O)N1CCCCCCNC1CCN(Cc2cccc(Cl)c2)CC1 [Compound 3, 2-(6-(1-(3-Chlorobenzyl)piperidin-4-ylamino)hexyl)isoindoline-1,3-dione]
IC50 (BuChE from horse serum): 7660 nM
IC50 [2, 4]: 44000 nM

O=C1c2ccccc2C(=O)N1CCCCCCNC1CCN(Cc2ccccc2)CC1 [Compound 2, 2-(6-(1-Benzylpiperidin-4-ylamino)hexyl)isoindoline-1,3-dione]
IC50 (BuChE from horse serum; [5]): 24500 nM
IC50 [2, 4]: 53700 nM

O=C1c2ccccc2C(=O)N1CCCNC1CCN(Cc2ccccc2)CC1 [Compound 1, 2-(3-(1-Benzylpiperidin-4-ylamino)propyl)isoindoline-1,3-dione]
IC50 (BuChE from horse serum; [5]): 22800 nM
IC50 [2, 4]: 18200 nM

CCN(CC)CCCCCCCN1C(=O)c2ccccc2C1=O [Compound 8, 2-(7-diethylaminoheptyl)-isoindoline-1,3-dione]
IC50 [1, 3]: 1070 nM
IC50 ([1]; read-out: IC50 AChE): 1070 nM

O=C1c2ccccc2C(=O)N1CCCCCNCc1ccccc1 [Compound 5, 2-(5-(Benzylamino)pentyl)isoindoline-1,3-dione]
IC50 [2, 4]: 170 nM
IC50 ([2]; IC50 AChE, Ellman's assay): 170 nM

O=C1c2ccccc2C(=O)N1CCCCCCNCc1ccccc1 [Compound 4, 2-(6-(Benzylamino)hexyl)isoindoline-1,3-dione]
IC50 [2, 4]: 330 nM
IC50 ([2]; IC50 AChE, Ellman's assay): 330 nM

O=C1c2ccccc2C(=O)N1CCCCCNCc1ccccc1F [Compound 6, 2-(5-(2-fluorobenzylamino)pentyl)isoindoline-1,3-dione]
IC50 [2, 4]: 87.2 nM
IC50 ([2]; IC50 AChE, Ellman's assay): 87 nM and 87.2 nM
